From patent publication US9050326B2, “Amido derivatives-contained pharmaceutical composition” (priority 2008, dated 2015)
In brackets after ≈: the same amount, converted by molar mass.

Tests used:
[1] = Solubility, dissolution test of the 15th Edition of the Japanese Pharmacopoeia; format: physicochemical; details: thermodynamic from solid, without storage, read-out: Solubility of compound A
[2] = Chemical stability against heat in manufacturing a solid dispersion with a twin screw extruder (melting method); format: physicochemical
Source text: Salts, a clathrate, a solid dispersion, and the like are known as methods of improving the solubility of a slightly water-soluble drug. However, with respect to compound A per se, it is expected that a salt of compound A is desalted, even if the solubility is improved, and that the inclusion ability of cyclodextrin, which is commonly used as a host of clathrates, is low.

Cc1cccc(C)c1N(CC(=O)Nc1ccc(-c2ncon2)cc1)C(=O)C1CCS(=O)(=O)CC1 [Compound A, N-(2,6-Dimethylphenyl)-N-(2-{[4-(1,2,4-oxadiazol-3-yl)phenyl]amino}-2-oxoethyl)tetrahydro-2H-thiopyran-4-carboxamide 1,1-dioxide]
solubility [1]: 2 µg/mL (≈ 4.14 µM) | Chemical stability against heat [2]: low chemical stability against heat
